# Data published in patent publication US20030229053A1, “Compounds and methods for the treatment or prevention of flavivirus infections” (Shire BioChem Inc., priority 2001, published 2003).
# Target: recombinant HCV NS5B (Hepatitis C virus genotype 1b, UniProt P26663)
# Experiment: biochemical
# Details: flashplate, polyrA/biotinylated-oligo dT, 100 nM NS5B, 2 hrs at room temperature; read-out: RNA pol Assay 2 IC50 (μm)
# Description: In vitro HCV RdRp Flashplate Scintillation Proximity Assay (Strep-Flash Assay) Used to Evaluate Analogues:
# In brief, a 400 ng/μl polyrA solution (Amersham Pharmacia Biotech) was mixed volume-to-volume with 5′ biotin-oligo dT12 at 20 pmol/μl. The template and primers were denatured at 95 C for 5 minutes then incubated at 37 C for 10 minutes. Annealed template-primers were subsequently diluted in a Tris-HCl containing buffer and allowed to bind to streptavidin-coated flashplates overnight.
# Chain of recombinant HCV NS5B (P26663 2420-3010 limits assumed): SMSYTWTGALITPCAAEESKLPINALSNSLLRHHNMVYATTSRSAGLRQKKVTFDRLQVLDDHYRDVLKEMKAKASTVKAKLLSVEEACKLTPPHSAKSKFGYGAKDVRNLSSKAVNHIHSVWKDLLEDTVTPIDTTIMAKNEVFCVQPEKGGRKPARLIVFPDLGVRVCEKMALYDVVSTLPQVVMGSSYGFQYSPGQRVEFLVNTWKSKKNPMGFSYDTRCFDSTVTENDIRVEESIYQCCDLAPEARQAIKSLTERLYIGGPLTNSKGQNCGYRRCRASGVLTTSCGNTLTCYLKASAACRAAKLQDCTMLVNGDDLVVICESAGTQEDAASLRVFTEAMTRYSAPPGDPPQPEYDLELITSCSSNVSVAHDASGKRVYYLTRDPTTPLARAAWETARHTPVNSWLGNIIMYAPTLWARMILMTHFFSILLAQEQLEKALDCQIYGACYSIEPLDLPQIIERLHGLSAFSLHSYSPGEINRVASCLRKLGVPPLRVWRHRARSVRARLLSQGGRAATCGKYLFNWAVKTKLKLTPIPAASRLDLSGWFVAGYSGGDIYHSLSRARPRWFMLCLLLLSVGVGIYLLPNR
row,Structure (SMILES),IC50 [µM]
1,"O=C(O)[C@H](Cc1ccccc1)N(Cc1sccc1-c1ccc(OC(F)(F)F)cc1)C(=O)c1ccc(Cl)cc1Cl [compound #179, 2-{(2,4-Dichloro-benzoyl)-[3-(4-trifluoromethoxy-phenyl)-thiophen-2-ylmethyl]-amino}-3-phenyl-propionic acid]",5 to 20
2,"O=C(O)[C@H](Cc1ccccc1)N(Cc1sccc1-c1cccc(C(F)(F)F)c1)C(=O)c1ccc(Cl)cc1Cl [compound #180, 2-{(2,4-Dichloro-benzoyl)-[3-(3-trifluoromethyl-phenyl)-thiophen-2-ylmethyl]-amino}-3-phenyl-propionic acid]",5 to 20
3,"O=C(O)[C@H](Cc1ccccc1)N(Cc1sccc1-c1cc(C(F)(F)F)cc(C(F)(F)F)c1)C(=O)c1ccc(Cl)cc1Cl [compound #181, 2-[[3-(3,5-Bis-trifluoromethyl-phenyl)-thiophen-2-ylmethyl]-(2,4-dichloro-benzoyl)-amino]-3-phenyl-propionic acid]",5 to 20
4,"O=C(O)[C@H](Cc1ccccc1)N(Cc1sccc1-c1ccncc1)C(=O)c1ccc(Cl)cc1Cl [compound #182, 2-[(2,4-Dichloro-benzoyl)-(3-pyridin-4-yl-thiophen-2-ylmethyl)-amino]-3-phenyl-propionic acid]",5 to 20
5,"CSc1ccc(-c2ccsc2CN(C(=O)c2ccc(Cl)cc2Cl)[C@@H](Cc2ccccc2)C(=O)O)cc1 [compound #183, 2-{(2,4-Dichloro-benzoyl)-[3-(4-methylsulfanyl-phenyl)-thiophen-2-ylmethyl]-amino}-3-phenyl-propionic acid]",5 to 20
6,"O=C(O)[C@H](Cc1ccccc1)N(Cc1ccccc1Br)C(=O)c1ccc(Cl)cc1Cl [compound #187, 2-[(2-Bromo-benzyl)-(2,4-dichloro-benzoyl)-amino]-3-phenyl-propionic acid]",5 to 20
7,"CN(C(=O)c1ccc(Cl)cc1Cl)[C@@H](Cc1ccccc1Br)C(=O)O [compound #188, 3-(2-Bromo-phenyl)-2-[(2,4-dichloro-benzoyl)-methyl-amino]-propionic acid]",5 to 20
8,"O=C(O)C(Cc1ccccc1)N(C(=O)c1ccc(Cl)cc1Cl)c1cccc(Br)c1 (stereo not drawn) [compound #190, 2-[(3-Bromo-phenyl)-(2,4-dichloro-benzoyl)-amino]-3-phenyl-propionic acid]",5 to 20
9,"O=C(O)[C@H](Cc1ccccc1)N(C(=O)c1ccc(Cl)cc1Cl)c1ccc(Br)cc1 [compound #191, 2-[(4-Bromo-phenyl)-(2,4-dichloro-benzoyl)-amino]-3-phenyl-propionic acid]",> 20

# Other lines, results leading:
row,IC50 [µM],Structure (SMILES)
1,5 to 20,"O=C(O)C(Cc1ccccc1)N(Cc1ccc(OCc2ccc(F)cc2)cc1)C(=O)c1ccc(Cl)cc1Cl (stereo not drawn) [compound #172, 2-{(2,4-Dichloro-benzoyl)-[4-(4-fluoro-benzyloxy)-benzyl]-amino}-3-phenyl-propionic acid]"
2,5 to 20,"O=C(O)C(Cc1ccccc1)N(Cc1ccc(F)c(C(F)(F)F)c1)C(=O)c1ccc(Cl)cc1Cl (stereo not drawn) [compound #173, 2-[(2,4-Dichloro-benzoyl)-(4-fluoro-3-trifluoromethyl-benzyl)-amino]-3-phenyl-propionic acid]"
3,5 to 20,"O=C(O)C(Cc1ccccc1)N(Cc1cccn1S(=O)(=O)c1ccccc1)C(=O)c1ccc(Cl)cc1Cl (stereo not drawn) [compound #174, 2-[(1-Benzenesulfonyl-1h-pyrrol-2-ylmethyl)-(2,4-dichloro-benzoyl)-amino]-3-phenyl-propionic acid]"
4,5 to 20,"O=C(O)C(Cc1ccccc1)N(Cc1cccc(Oc2ccc(Cl)cc2)c1)C(=O)c1ccc(Cl)cc1Cl (stereo not drawn) [compound #175, 2-[[3-(4-Chloro-phenoxy)-benzyl]-(2,4-dichloro-benzoyl)-amino]-3-phenyl-propionic acid]"
5,5 to 20,"O=C(O)C(Cc1ccccc1)N(Cc1ccccc1OCc1ccccc1)C(=O)c1ccc(Cl)cc1Cl (stereo not drawn) [compound #177, 2-[(2-Benzyloxy-benzyl)-(2,4-dichloro-benzoyl)-amino]-3-phenyl-propionic acid]"
6,5 to 20,"COc1ccc(C(C)C)cc1-c1ccsc1CN(C(=O)c1ccc(Cl)cc1Cl)[C@@H](Cc1ccccc1)C(=O)O [compound #178, 2-{(2,4-Dichloro-benzoyl)-[3-(5-isopropyl-2-methoxy-phenyl)-thiophen-2-ylmethyl]-amino}-3-phenyl-propionic acid]"
7,< 5,"O=C(O)[C@H](Cc1ccccc1)N(Cc1sccc1-c1ccc(F)cc1)C(=O)c1ccc(Cl)cc1Cl [compound #184, 2-{(2,4-Dichloro-benzoyl)-[3-(4-fluoro-phenyl)-thiophen-2-ylmethyl]-amino}-3-phenyl-propionic acid]"
8,< 5,"O=C(O)[C@H](Cc1ccccc1)N(Cc1sccc1-c1cccnc1)C(=O)c1ccc(Cl)cc1Cl [compound #185, 2-[(2,4-Dichloro-benzoyl)-(3-pyridin-3-yl-thiophen-2-ylmethyl)-amino]-3-phenyl-propionic acid]"
9,< 5,"CN(C(=O)c1ccc(Cl)cc1Cl)[C@H](Cc1ccc(Br)cc1)C(=O)O [compound #189, 3-(4-Bromo-phenyl)-2-[(2,4-dichloro-benzoyl)-methyl-amino]-propionic acid]"
